Measurements: a melting point compilation (Tetko et al.; mined from patent text by program, amines drawn as free bases though some values may be those of a salt)

| melting point | Structure (SMILES) |
| --- | --- |
| 154 to 156 °C | CCOCc1nc2c(N)nc3ccccc3c2n1CCOCCNC(=O)c1ccccc1 |
| 95 to 96 °C | COC(C(=O)O)c1c(Cl)cccc1Cl (centres undefined) |
| 67 to 70 °C | Clc1ccc2c(c1)CCN(c1ccccc1)C2 |
| 119 to 120 °C | C[C@@H](SCCCO)[C@](O)(Cn1cncn1)c1ccc(F)cc1F (relative stereo) |
| 245 to 246 °C | Nc1nnc2ccc(N3CCCCC3)nn12 |
| 169 to 170 °C | O=C(O)c1cccc(-c2cccc3cc(Cc4cccc(C(F)(F)F)c4)oc23)c1 |
| 99 to 101 °C | COCOc1c2c(cc3ccccc13)N(C(=O)OC(C)(C)C)CC2CCl (centres undefined) |
| 168 to 170 °C | Nc1cc(-n2cc(C(=O)O)c(=O)c3cc(F)c(N4CC(N)C4)nc32)c(F)cc1F |
| 70 to 72 °C | O=C(c1ccccc1)c1cc(Cl)ccc1C=CCN1C(=O)c2ccccc2C1=O |
| 82 to 84 °C | COc1cc(Oc2cccc(C(F)(F)F)c2)nc(C(=O)NCCSCCF)c1 |
| 195 to 196 °C | Cc1sc2cc(CO)ccc2c1C(=O)O |
| 74 to 75 °C | CC(=O)OC1c2ccccc2C(=O)N1CCO[N+](=O)[O-] (centres undefined) |
| 190 to 192 °C | Cc1c(O)c(C(C)(C)C)cc2c1CCC1C2CCC2(C)C(=O)CCC12 (centres undefined) |
| 167 to 168 °C | CC(=O)N1CCCC2=C1CC(c1ccccc1)c1cc(Cl)ccc12 (centres undefined) |
| 79 to 82 °C | CCCCCN(CCCOC)C(=O)C(CCC(=O)O)CS(=O)(=O)c1ccc2ccccc2c1 (centres undefined) |
| 82 to 82.5 °C | CCON=C(CC)C1=C(O)CC(c2ccc(Oc3ncc(C(F)(F)F)cc3F)cc2)CC1=O (centres undefined) |
| 154 to 159 °C | N#CCc1cc(C(=O)O)cs1 |

| melting point | Structure (SMILES) |
| --- | --- |
| 135 to 138 °C | ClCc1c(Cl)c(Cl)c(Cl)c(CCl)c1Cl |
| 163 to 165 °C | O=C(CCn1c2ccccc2c2ccccc21)OCCn1c2ccccc2c2ccccc21 |
| 138 °C | O=C1c2ccccc2C(=O)N1CCCCN1CCN(c2ncccn2)CC1 |
| 220 to 222 °C | NC1=NC(c2ccc(C(F)(F)F)cc2)Nc2cccc(F)c21 (centres undefined) |
| 207 to 209 °C | CCCc1nc2c(N)nc3ccccc3c2n1CCC(=O)N(C)C |
| 209 to 210 °C | O=C(Cc1ccccc1C(=O)O)Nc1cccc(/C=C/c2nc(C3CCCC3)cs2)c1 |
| 246 to 247 °C | CCc1cn(C2CC(O)C(CNC(=O)c3ccccc3)O2)c(=O)[nH]c1=O (centres undefined) |
| 147 to 149 °C | COc1ccc(-c2nc(Sc3cccc(F)c3)[nH]c2-c2ccc(OC)cc2)cc1 |
| 131 to 134 °C | CC(CSCCSCCSCC(C)C(=O)Nc1ccc(Nc2ccccc2)cc1)C(=O)Nc1ccc(Nc2ccccc2)cc1 (centres undefined) |
| 184 to 185 °C | COc1ccc(C(=O)Nc2cccc(Cl)c2)cc1NC(=S)Nc1ccc(F)cc1 |
| 131 to 141 °C | O=c1c(CO)cc(-c2ccc3c(c2)CCO3)nn1CC=Cc1ccc(Cl)cc1 |
| 175 to 176 °C | CC1(C)NC(=O)N(CC(O)Cc2cc(C(C)(C)C)c(O)c(C(C)(C)C)c2)C1=O (centres undefined) |
| 203 to 204 °C | Cc1cc(C(=O)Nc2ccc(S(=O)(=O)C(F)(F)F)cc2Cl)c(O)c(C23CC4CC(CC(C4)C2)C3)c1 |
| 152 to 153 °C | CC(=O)NC[C@H]1CN(c2ccc(N3CC(C)(O)C3)c(F)c2)C(=O)O1 |
| 139 to 140 °C | CCC1(C)OC1(C#N)C(=O)O (centres undefined) |
| 200 to 202 °C | COCCc1nc2c(N)nc3cc(OCc4cccnc4)ccc3c2n1CC(C)(C)O |
| 212 to 214 °C | Clc1ccc2c(c1)C1(CN3CCC(Nc4ncccn4)CC3)CC2c2ccccc21 (centres undefined) |

| Structure (SMILES) | melting point |
| --- | --- |
| COc1cccc2c1CC1c3c(cc(OC)c(OC)c3-2)CCN1C (centres undefined) | 184 to 185 °C |
| CC(C)(C)[PH](=O)Cc1ccccc1 (centres undefined) | 80 to 82 °C |
| CCCN1C(=O)N(c2ccc([N+](=O)[O-])c(C(F)(F)F)c2)C(=O)C1(C)C | 102 °C |
| Clc1ccccc1CN1CC=C(c2cc3ccccc3s2)CC1 | 105 to 106 °C |
| Fc1ccc(-c2cccc(-c3cn([C@H]4CN5CCC4CC5)nn3)c2)cn1 | 164 °C |
